{"source": "patent US9999222B2", "about": "“Herbicidal combination comprising azines” (BASF SE, priority 2014, dated 2018)", "test_in_all_cases": "Greenhouse test, pre-emergence treatment", "key": {"BRADC": {"system": "BRADC", "type": "in vivo, Brachiaria decumbens", "conditions": "Urochloa decumbens, pre-emergence, 480 h", "method_in_brief": "(§1)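 Seeds were sown in loamy sand with approximately 3.0% humus, then sprayed at once with actives suspended or emulsified in water. Pots were watered, hooded until rooting, held at 10-25° C. or 20-35° C. by species for 2 to 4 weeks, and scored 0 (no damage) to 100 (no emergence/complete destruction).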"}, "SETFA": {"system": "SETFA", "type": "in vivo, Setaria faberi", "conditions": "Setaria faberi, 480 h, use rate 30 g ai/ha, read-out: observed % activity 20 DAT", "method_in_brief": "as §1"}, "ECHCG": {"system": "ECHCG", "type": "in vivo, Echinocloa crus-galli", "conditions": "Echinochloa crus-galli, 480 h, read-out: observed % activity 20 DAT", "method_in_brief": "as §1"}, "KCHSC": {"system": "KCHSC", "type": "in vivo, Kochia scoparia", "conditions": "Bassia scoparia, pre-emergence, 480 h", "method_in_brief": "as §1"}, "ALOMY": {"system": "ALOMY", "type": "in vivo, Alopecurus myosuroides", "conditions": "Alopecurus myosuroides, pre-emergence, 480 h", "method_in_brief": "as §1"}, "POLCO": {"system": "POLCO", "type": "in vivo, Polygonum convolvulus", "conditions": "Fallopia convolvulus, pre-emergence, 480 h, 20 g ai/ha, 20 DAT; read-out: observed % activity", "method_in_brief": "as §1"}, "GALAP": {"system": "GALAP", "type": "in vivo, Galium aparine", "conditions": "Galium aparine, pre-emergence, 480 h, 40 g ai/ha, 20 DAT; read-out: observed % activity", "method_in_brief": "as §1"}, "SORHA": {"system": "SORHA", "type": "in vivo, Sorghum halepense", "conditions": "Sorghum halepense, pre-emergence, 480 h; 40 g ai/ha, 20 DAT; read-out: observed % activity", "source_text": "The culture containers used were plastic flowerpots containing loamy sand with approximately 3.0% of humus as the substrate. The seeds of the test plants were sown separately for each species.\nFor the pre-emergence treatment, the active ingredients, which had been suspended or emulsified in water, were applied directly after sowing by means of finely distributing nozzles. The containers were irrigated gently to promote germination and growth and subsequently covered with transparent plastic hoods until the plants had rooted. This cover caused uniform germination of the test plants, unless this had been impaired by the active ingredients.\nDepending on the species, the plants were kept at 10-25° C. or 20-35° C., respectively.\nThe test period extended over 2 to 4 weeks. During this time, the plants were tended, and their response to the individual treatments was evaluated.\nEvaluation was carried out using a scale from 0 to 100. 100 means no emergence of the plants, or complete destruction of at least the aerial moieties, and 0 means no damage, or normal course of growth. A moderate herbicidal activity is given at values of at least 60, a good herbicidal activity is given at values of at least 70, and a very good herbicidal activity is given at values of at least 85.\nThe respective stated components a and b, and if appropriate, c were formulated as a 10% by weight strength emulsion concentrate and, with addition of the amount of solvent system, introduced into the spray liquor used for applying the active compound.\nIn the examples, the solvent used was water.\nIn the examples below, using the method of S. R. Colby (1967) “Calculating synergistic and antagonistic responses of herbicide combinations”, Weeds 15, p. 22ff., the value E, which is expected if the activity of the individual active compounds is only additive, was calculated. E=X+Y−(X·Y/100) where • X=percent activity using active compound a at an application rate A; • Y=percent activity using active compound b at an application rate B; • E=expected activity (in %) by a+b at application rates A+B.\nIf the value found experimentally is higher than the value E calculated according to Colby, a synergistic effect is present."}, "LOLMU": {"system": "LOLMU", "type": "in vivo, Lolium multiflorum", "conditions": "Lolium multiflorum, pre-emergence, 480 h, pre-emergence, read-out: observed % activity 20 DAT", "method_in_brief": "as §1"}, "AVEFA": {"system": "AVEFA", "type": "in vivo, Avena fatua", "conditions": "pre-emergence", "method_in_brief": "as §1"}, "PHACA": {"system": "PHACA", "type": "in vivo, Phalaris canariensis", "conditions": "Phalaris canariensis, pre-emergence, 480 h", "method_in_brief": "as §1"}, "[1]": {"conditions": "40 g ai/ha, 20 DAT, read-out: observed % activity"}, "[2]": {"conditions": "10 g ai/ha, read-out: observed % activity 20 DAT"}, "[3]": {"conditions": "20 g ai/ha, read-out: observed % activity 20 DAT"}, "[4]": {"conditions": "30 g ai/ha, read-out: observed % activity 20 DAT"}, "[5]": {"conditions": "40 g ai/ha, read-out: observed % activity 20 DAT"}, "[6]": {"conditions": "10 g ai/ha, 20 DAT, read-out: observed % activity"}, "[7]": {"conditions": "20 g ai/ha, 20 DAT, read-out: observed % activity"}, "[8]": {"conditions": "use rate 30 g ai/ha, read-out: observed % activity 20 DAT"}, "[9]": {"conditions": "use rate 60 g ai/ha, read-out: observed % activity 20 DAT"}, "[10]": {"conditions": "use rate 60 g ai/ha, 20 DAT, read-out: observed % activity 20 DAT"}}, "note": "Like-named read-outs stand apart in the source and are kept apart here.", "data": [{"smiles": "CC(C)N(C(=O)COc1nnc(C(F)(F)F)s1)c1ccc(F)cc1", "note": "[Flufenacet, flufenacet]", "values": [{"measurement": "inhibition at 40 g/ha", "setting": "BRADC; [1]", "value": 65, "unit": "%"}, {"measurement": "pest or weed control at 10 g/ha", "setting": "BRADC; [2]", "value": 45, "unit": "%"}, {"measurement": "pest or weed control at 20 g/ha", "setting": "BRADC; [3]", "value": 40, "unit": "%"}, {"measurement": "pest or weed control at 30 g/ha", "setting": "BRADC; [4]", "value": 0, "unit": "%"}, {"measurement": "pest or weed control at 40 g/ha", "setting": "BRADC; [5]", "value": 25, "unit": "%"}, {"measurement": "pest or weed control at 60 g/ha", "setting": "BRADC; 60 g ai/ha, read-out: observed % activity 20 DAT", "value": 98, "unit": "%"}, {"measurement": "inhibition at 30 g/ha", "setting": "SETFA", "value": 98, "unit": "%"}, {"measurement": "pest or weed control at 30 g/ha", "setting": "ECHCG; 30 g ai/ha", "value": 75, "unit": "%"}, {"measurement": "pest or weed control at 60 g/ha", "setting": "ECHCG; 60 g ai/ha", "value": 95, "unit": "%"}, {"measurement": "pest or weed control at 30 g/ha", "setting": "ECHCG; use rate 30 g ai/ha, 20 DAT", "value": 85, "unit": "%"}, {"measurement": "inhibition at 30 g/ha", "setting": "ECHCG; use rate 30 g ai/ha", "value": 85, "unit": "%"}, {"measurement": "inhibition at 10 g/ha", "setting": "KCHSC; [6]", "value": 0, "unit": "%"}, {"measurement": "inhibition at 20 g/ha", "setting": "KCHSC; [7]", "value": 0, "unit": "%"}, {"measurement": "inhibition at 40 g/ha", "setting": "KCHSC; [1]", "value": 0, "unit": "%"}, {"measurement": "inhibition at 30 g/ha", "setting": "KCHSC; [8]", "value": 0, "unit": "%"}, {"measurement": "inhibition at 60 g/ha", "setting": "KCHSC; [9]", "value": 0, "unit": "%"}, {"measurement": "inhibition at 10 g/ha", "setting": "ALOMY; [6]", "value": 28, "unit": "%"}, {"measurement": "pest or weed control at 10 g/ha", "setting": "ALOMY; [2]", "value": 25, "unit": "%"}, {"measurement": "pest or weed control at 20 g/ha", "setting": "ALOMY; [3]", "value": 70, "unit": "%"}, {"measurement": "pest or weed control at 40 g/ha", "setting": "ALOMY; [5]", "value": 75, "unit": "%"}, {"measurement": "inhibition at 30 g/ha", "setting": "ALOMY; [8]", "value": 75, "unit": "%"}, {"measurement": "pest or weed control at 60 g/ha", "setting": "ALOMY; [10]", "value": 80, "unit": "%"}, {"measurement": "inhibition at 60 g/ha", "setting": "ALOMY; [9]", "value": 80, "unit": "%"}, {"measurement": "inhibition at 20 g/ha", "setting": "POLCO", "value": 0, "unit": "%"}, {"measurement": "inhibition at 40 g/ha", "setting": "GALAP", "value": 40, "unit": "%"}, {"measurement": "inhibition at 40 g/ha", "setting": "SORHA", "value": 95, "unit": "%"}, {"measurement": "pest or weed control at 10 g/ha", "setting": "LOLMU; 10 g ai/ha", "value": 0, "unit": "%"}, {"measurement": "pest or weed control at 20 g/ha", "setting": "LOLMU; 20 g ai/ha", "value": 20, "unit": "%"}, {"measurement": "pest or weed control at 30 g/ha", "setting": "LOLMU; 30 g ai/ha", "value": 30, "unit": "%"}, {"measurement": "pest or weed control at 40 g/ha", "setting": "LOLMU; 40 g ai/ha", "value": 55, "unit": "%"}, {"measurement": "pest or weed control at 30 g/ha", "setting": "LOLMU; use rate 30 g ai/ha, 20 DAT", "value": 0, "unit": "%"}, {"measurement": "inhibition at 30 g/ha", "setting": "LOLMU; use rate 30 g ai/ha", "value": 20, "unit": "%"}, {"measurement": "pest or weed control at 60 g/ha", "setting": "LOLMU; use rate 60 g ai/ha, 20 DAT", "value": 30, "unit": "%"}, {"measurement": "inhibition at 60 g/ha", "setting": "LOLMU; use rate 60 g ai/ha", "value": 30, "unit": "%"}, {"measurement": "inhibition at 40 g/ha", "setting": "AVEFA; Avena fatua, 480 h, 40 g ai/ha, 20 DAT, read-out: observed % activity", "value": 10, "unit": "%"}, {"measurement": "observed % activity 20 DAT", "setting": "AVEFA; 30 g ai/ha", "value": 0, "unit": "%"}, {"measurement": "observed % activity 20 DAT", "setting": "AVEFA; 40 g ai/ha", "value": 55, "unit": "%"}, {"measurement": "inhibition at 10 g/ha", "setting": "PHACA; [6]", "value": 0, "unit": "%"}, {"measurement": "inhibition at 20 g/ha", "setting": "PHACA; [7]", "value": 33, "unit": "%"}, {"measurement": "pest or weed control at 10 g/ha", "setting": "PHACA; [2]", "value": 10, "unit": "%"}, {"measurement": "pest or weed control at 20 g/ha", "setting": "PHACA; [3]", "value": 65, "unit": "%"}, {"measurement": "pest or weed control at 30 g/ha", "setting": "PHACA; [4]", "value": 80, "unit": "%"}, {"measurement": "pest or weed control at 40 g/ha", "setting": "PHACA; [5]", "value": 75, "unit": "%"}, {"measurement": "inhibition at 30 g/ha", "setting": "PHACA; [8]", "value": 65, "unit": "%"}, {"measurement": "pest or weed control at 60 g/ha", "setting": "PHACA; [10]", "value": 98, "unit": "%"}, {"measurement": "inhibition at 60 g/ha", "setting": "PHACA; [9]", "value": 98, "unit": "%"}]}]}
